Test results: ChEMBL document CHEMBL6083204, “Synthesis of a celastrol derivative as a cancer stem cell inhibitor through regulation of the STAT3 pathway for treatment of ovarian cancer” (RSC Med Chem, 2024)
Activity calls are given as the source filed them. The rule behind the calls is not given here.

Assays:
SK-OV-3 [1] = test: Induction of cell cycle arrest in human SK-OV-3 cells assessed as accumulation of cells at S phase at 0.2 uM incubated for 24 hrs by BrdU staining based flow cytometry (reference value: 33.6 %); format: functional
A2780 [2] = test: Induction of cell cycle arrest in human A2780 cells assessed as accumulation of cells at G2/M phase at 0.4 uM incubated for 24 hrs by BrdU staining based flow cytometry (reference value: 6.2 %); format: functional
A2780 [3] = test: Induction of apoptosis in human A2780 cells assessed as increase in caspase-3 activity at 0.2 uM incubated for 24 hrs by flow cytometry (reference value: 1.5 %); format: functional
SK-OV-3 [4] = test: Antiproliferative activity against human SK-OV-3 cells assessed as decrease in CD44 positive CD24 negative cells expression at 0.2 uM incubated for 24 hrs by FITC staining based flow cytometry (reference value: 85.6 %); format: functional; set-up: scale not given: the % may be the effect or the level left
[5] = biological target: Signal transducer and activator of transcription 3 (Homo sapiens) (UniProt P40763); test: Inhibition of STAT3 in human SK-OV-3 cells assessed as downregulation of STAT3 phosphorylation at Ser727 residue in nuclei at 0.2 uM incubated for 24 hrs by Hoechst33342 staining based immunofluorescence assay; format: cell-based
SK-OV-3 [6] = test: Induction of apoptosis in human SK-OV-3 cells assessed as viable cells at 0.2 uM incubated for 24 hrs by Annexin V-FITC/7-AAD staining based flow cytometry (reference value: 94.6 %); format: functional; details: read-out: Activity
[7] = biological target: Signal transducer and activator of transcription 3 (Homo sapiens) (UniProt P40763); test: Inhibition of STAT3 in human A2780 cells assessed as downregulation of cytoplasmic STAT3 phosphorylation at Tyr705 residue at 0.2 uM incubated for 24 hrs by Hoechst33342 staining based immunofluorescence assay; format: cell-based
A2780 [8] = test: Induction of cell cycle arrest in human A2780 cells assessed as accumulation of cells at G0/G1 phase at 0.2 uM incubated for 24 hrs by BrdU staining based flow cytometry (reference value: 42.4 %); format: functional
Mitochondrial membrane = test: Induction of mitochondrial membrane potential loss in human A2780 cells at 0.4 uM incubated for 24 hrs by JC-1 staining based flow cytometry (reference value: 81 %)
A2780 [9] = test: Induction of cell cycle arrest in human A2780 cells assessed as reduction of CDK2 expression at 0.4 uM incubated for 24 hrs by flow cytometry (reference value: 92.5 %); format: functional; set-up: scale not given: the % may be the effect or the level left
[10] = Toxicity in BALB/c mouse xenografted with human SK-OV-3 cells assessed as pathological change in spleen at 2 to 5 mg/kg,ip administrated for 21 consecutive days by hematoxylin and eosin staining based assay; format: organism-based; details: in vivo, dose 2-5 mg/kg
SK-OV-3 [11] = test: Induction of cell cycle arrest in human SK-OV-3 cells assessed as reduction of CDK4 expression at 0.4 uM incubated for 24 hrs by flow cytometry (reference value: 66.8 %); format: functional; set-up: scale not given: the % may be the effect or the level left
A2780 [12] = test: Antiproliferative activity against human A2780 cells assessed as decrease in ALDH positive cells at 0.4 uM incubated for 24 hrs by ALDEFLUOR staining based flow cytometry (reference value: 32.5 %); format: functional; set-up: scale not given: the % may be the effect or the level left
A2780 [13] = test: Induction of apoptosis in human A2780 cells assessed as necrotic cells at 0.2 uM incubated for 24 hrs by Annexin V-FITC/7-AAD staining based flow cytometry (reference value: 1 %); format: functional
SK-OV-3 [14] = test: Induction of cell cycle arrest in human SK-OV-3 cells assessed as reduction of Cyclin D1 expression at 0.2 uM incubated for 24 hrs by flow cytometry (reference value: 93.8 %); format: functional; set-up: scale not given: the % may be the effect or the level left
SK-OV-3 [15] = test: Induction of apoptosis in human SK-OV-3 cells assessed as early apoptotic cells at 0.8 uM incubated for 24 hrs by Annexin V-FITC/7-AAD staining based flow cytometry (reference value: 1.6 %); format: functional
SK-OV-3 [16] = test: Induction of apoptosis in human SK-OV-3 cells assessed as viable cells at 0.4 uM incubated for 24 hrs by Annexin V-FITC/7-AAD staining based flow cytometry (reference value: 94.6 %); format: functional; details: read-out: Activity
SK-OV-3 [17] = test: Antitumor activity against human SK-OV-3 cells xenografted in BALB/c mouse assessed as appearance of shrunken nucleus in tumor tissue at 2 to 5 mg/kg,ip administrated for 21 consecutive days by hematoxylin and eosin staining based assay; format: functional, organism-based; details: dose 2-5 mg/kg
[18] = biological target: Signal transducer and activator of transcription 3 (Homo sapiens) (UniProt P40763); test: Inhibition of STAT3 in human SK-OV-3 cells assessed as downregulation of STAT3 expression in nuclei at 0.2 uM incubated for 24 hrs by Hoechst33342 staining based immunofluorescence assay; format: cell-based
A2780 [19] = test: Induction of cell cycle arrest in human A2780 cells assessed as reduction of CDK4 expression at 0.2 uM incubated for 24 hrs by flow cytometry (reference value: 93.6 %); format: functional; set-up: scale not given: the % may be the effect or the level left
SK-OV-3 [20] = test: Antitumor activity against human SK-OV-3 cells xenografted in BALB/c mouse assessed as reduction in tumor weight at 5 mg/kg,ip administrated for 21 consecutive days; format: functional, organism-based
A2780 [21] = test: Induction of apoptosis in human A2780 cells assessed as increase in caspase-8 activity at 0.2 uM incubated for 24 hrs by flow cytometry (reference value: 1.2 %); format: functional
A2780 [22] = test: Induction of cell cycle arrest in human A2780 cells assessed as accumulation of cells at G2/M phase at 0.8 uM incubated for 24 hrs by BrdU staining based flow cytometry (reference value: 6.2 %); format: functional
SK-OV-3 [23] = test: Antitumor activity against human SK-OV-3 cells xenografted in BALB/c mouse assessed as appearance of loosely arranged cells in tumor tissue at 2 to 5 mg/kg,ip administrated for 21 consecutive days by hematoxylin and eosin staining based assay; format: functional, organism-based; details: dose 2-5 mg/kg
SK-OV-3 [24] = test: Induction of apoptosis in human SK-OV-3 cells assessed as increase in caspase-8 activity at 0.8 uM incubated for 24 hrs by flow cytometry (reference value: 2.5 %); format: functional
A2780 [25] = test: Induction of apoptosis in human A2780 cells assessed as increase in caspase-3 activity at 0.8 uM incubated for 24 hrs by flow cytometry (reference value: 1.5 %); format: functional
SK-OV-3 [26] = test: Induction of cell cycle arrest in human SK-OV-3 cells assessed as accumulation of cells at G0/G1 phase at 0.4 uM incubated for 24 hrs by BrdU staining based flow cytometry (reference value: 59.8 %); format: functional
A2780 [27] = test: Induction of apoptosis in human A2780 cells assessed as late apoptotic cells at 0.2 uM incubated for 24 hrs by Annexin V-FITC/7-AAD staining based flow cytometry (reference value: 2.1 %); format: functional
SK-OV-3 [28] = test: Induction of cell cycle arrest in human SK-OV-3 cells assessed as accumulation of cells at G2/M phase at 0.8 uM incubated for 24 hrs by BrdU staining based flow cytometry (reference value: 6.3 %); format: functional
A2780 [29] = test: Induction of cell cycle arrest in human A2780 cells assessed as accumulation of cells at S phase at 0.2 uM incubated for 24 hrs by BrdU staining based flow cytometry (reference value: 51.6 %); format: functional
A2780 [30] = test: Inhibition of colony formation in human A2780 cells assessed as reduction in colony size incubated for 10 days by crystal violet staining based analysis; format: functional, cell-based; details: time 10.0 day
A2780 [31] = test: Induction of apoptosis in human A2780 cells assessed as late apoptotic cells at 0.4 uM incubated for 24 hrs by Annexin V-FITC/7-AAD staining based flow cytometry (reference value: 2.1 %); format: functional

Sequence of Signal transducer and activator of transcription 3 (Homo sapiens) (P40763 whole entry): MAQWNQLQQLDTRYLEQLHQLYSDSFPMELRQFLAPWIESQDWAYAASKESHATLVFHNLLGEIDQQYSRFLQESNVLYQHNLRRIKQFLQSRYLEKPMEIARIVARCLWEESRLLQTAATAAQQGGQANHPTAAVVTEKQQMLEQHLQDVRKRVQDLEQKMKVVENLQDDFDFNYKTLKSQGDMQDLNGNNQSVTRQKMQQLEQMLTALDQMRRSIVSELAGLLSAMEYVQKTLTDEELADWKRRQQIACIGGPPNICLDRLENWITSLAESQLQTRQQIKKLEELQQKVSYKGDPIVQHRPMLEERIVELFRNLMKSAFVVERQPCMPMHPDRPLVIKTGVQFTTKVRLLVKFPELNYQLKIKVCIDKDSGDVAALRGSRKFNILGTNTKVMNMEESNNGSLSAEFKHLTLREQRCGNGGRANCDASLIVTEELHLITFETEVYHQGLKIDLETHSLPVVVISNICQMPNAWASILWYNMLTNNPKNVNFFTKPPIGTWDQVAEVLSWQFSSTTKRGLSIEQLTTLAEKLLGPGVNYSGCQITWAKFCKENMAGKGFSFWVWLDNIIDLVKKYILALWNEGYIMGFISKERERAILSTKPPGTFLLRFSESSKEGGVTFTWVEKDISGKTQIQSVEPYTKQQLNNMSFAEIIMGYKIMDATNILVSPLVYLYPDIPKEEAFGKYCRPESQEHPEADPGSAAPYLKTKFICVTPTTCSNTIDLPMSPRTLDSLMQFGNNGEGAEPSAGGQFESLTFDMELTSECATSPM

CC1=C(O)C(=O)C=C2C1=CC=C1[C@@]2(C)CC[C@@]2(C)[C@@H]3C[C@](C)(C(=O)N4CCNCC4)CC[C@]3(C)CC[C@]12C
Activity (SK-OV-3 [1]): 33.8% | Activity (A2780 [2]): 10.1% | Activity (A2780 [3]): 3.7% | Activity (SK-OV-3 [4]): 64.53% | inhibition [5]: Active | viability at 0.2 µM (SK-OV-3 [6]): 74.2% | inhibition [7]: Active; Showed Mild Inhibition Activity | Activity (A2780 [8]): 53.7% | Activity (Mitochondrial membrane): 49.5% | Activity (A2780 [9]): 69.9% | Activity [10]: Non-toxic | Activity (SK-OV-3 [11]): 70.6% | Activity (A2780 [12]): 0.37% | Activity (A2780 [13]): 1% | Activity (SK-OV-3 [14]): 90.3% | Activity (SK-OV-3 [15]): 33.2% | viability at 0.4 µM (SK-OV-3 [16]): 64.4% | Activity (SK-OV-3 [17]): Active | inhibition [18]: Active | Activity (A2780 [19]): 74.6% | Activity (SK-OV-3 [20]): Active; Showed Moderate Reduction Activity | Activity (A2780 [21]): 1% | Activity (A2780 [22]): 24.3% | Activity (SK-OV-3 [23]): Active | Activity (SK-OV-3 [24]): 74.7% | Activity (A2780 [25]): 70.7% | Activity (SK-OV-3 [26]): 49.2% | Activity (A2780 [27]): 5.3% | Activity (SK-OV-3 [28]): 18.2% | Activity (A2780 [29]): 41.7% | inhibition (A2780 [30]): Dose-dependent-effect | Activity (A2780 [31]): 15%
